{"source": "patent US20160242416A1", "about": "“FUNGICIDAL ISOXAZOLINE CARBINOLS” (E I DU PONT DE NEMOURS AND COMPANY, priority 2015, published 2016)", "key": {"Phytophthora infestans": {"tested_on": "Phytophthora infestans", "type": "in vivo", "details": "tomato late blight, 100 = 100% disease control, 0 = no control"}, "[1]": {"tested_on": "Puccinia recondita f sp. tritici", "assay": "Test F: wheat leaf rust, preventive spray on wheat seedlings", "details": "wheat leaf rust, 100 = 100% disease control, 0 = no control"}, "Botrytis cinerea": {"tested_on": "Botrytis cinerea", "assay": "Test B: gray mold, preventive spray on tomato seedlings", "details": "gray mold on tomato, 100 = 100% disease control, 0 = no control"}, "Zymoseptoria tritici": {"tested_on": "Zymoseptoria tritici", "assay": "Test E: wheat leaf blotch, preventive spray on wheat seedlings", "details": "wheat leaf blotch, 100 = 100% disease control, 0 = no control", "quoted_text": "(§1) General protocol for preparing test solutions for Tests A-G: the test compounds were first dissolved in acetone in an amount equal to 3% of the final volume and then suspended at the desired concentration (in ppm) in acetone and purified water (50/50 mix by volume) containing 250 ppm of the surfactant PEG400 (polyhydric alcohol esters). The resulting test suspensions were then used in Tests A-G. Compounds were sprayed at a concentration of 50 ppm (*) or 10 ppm to the point of run-off on the test plants, the equivalent of a rate of 200 g/ha or 40 g/ha, respectively.\nThe test solution was sprayed to the point of run-off on wheat seedlings. The following day the seedlings were inoculated with a spore suspension of Zymoseptoria tritici (the causal agent of wheat leaf blotch) and incubated in a saturated atmosphere at 24° C. for 48 h, and then moved to a growth chamber at 20° C. for 17 days, after which time visual disease ratings were made.\n(§2) Compounds with an asterisks (*) were applied at a concentration of 50 ppm, otherwise test solutions were applied at 10 ppm."}, "[2]": {"tested_on": "Erysiphe graminis f sp. tritici", "assay": "Test G: wheat powdery mildew, preventive spray on wheat seedlings", "details": "wheat powdery mildew, 100 = 100% disease control, 0 = no control", "quoted_text": "as §1\nThe test solution was sprayed to the point of run-off on wheat seedlings. The following day the seedlings were inoculated with a spore dust of Erysiphe graminis f sp. tritici, (the causal agent of wheat powdery mildew) and incubated in a growth chamber at 20° C. for 8 days, after which time visual disease ratings were made.\nas §2"}, "Stagonospora nodorum": {"tested_on": "Stagonospora nodorum", "assay": "Test D: wheat glume blotch, preventive spray on wheat seedlings", "details": "wheat glume blotch, 100 = 100% disease control, 0 = no control"}, "Plasmopara viticola": {"tested_on": "Plasmopara viticola", "assay": "Test A: grape downy mildew, preventive spray on grape seedlings", "type": "in vivo", "details": "100 = 100% disease control, 0 = no control", "source_text": "A dash (-) indicates no test results."}}, "note": "Where two headings read alike, the source gives them in different places."}
{"smiles": "CCCC(O)(Cn1cncn1)C1=NOC(c2ccc(Cl)cc2)C1", "note": "(single isomer, unassigned) [Compound 83]", "values": [{"measurement": "Test C rating (% disease control)", "setting": "Phytophthora infestans; 10 ppm", "result": 0, "unit": "%"}, {"measurement": "Test F rating (% disease control)", "setting": "[1]; 10 ppm", "result": 99, "unit": "%"}, {"measurement": "Test B rating (% disease control)", "setting": "Botrytis cinerea; 10 ppm", "result": 0, "unit": "%"}, {"measurement": "Test E rating (% disease control)", "setting": "Zymoseptoria tritici; 10 ppm", "result": 0, "unit": "%"}, {"measurement": "Test G rating (% disease control)", "setting": "[2]; 10 ppm", "result": 99, "unit": "%"}, {"measurement": "Test D rating (% disease control)", "setting": "Stagonospora nodorum; 10 ppm", "result": 87, "unit": "%"}, {"measurement": "Test A rating (% disease control)", "setting": "Plasmopara viticola; 10 ppm", "result": 1, "unit": "%"}]}
{"smiles": "OC(Cn1cncn1)(C1=NOC(c2ccc(-n3cncn3)cc2)C1)c1ccc(Cl)cc1", "note": "(mixture of isomers) [Compound 2]", "values": [{"measurement": "Test C rating (% disease control)", "setting": "Phytophthora infestans; 10 ppm", "result": 0, "unit": "%"}, {"measurement": "Test F rating (% disease control)", "setting": "[1]; 10 ppm", "result": 100, "unit": "%"}, {"measurement": "Test B rating (% disease control)", "setting": "Botrytis cinerea; 10 ppm", "result": 0, "unit": "%"}, {"measurement": "Test E rating (% disease control)", "setting": "Zymoseptoria tritici; 10 ppm", "result": 0, "unit": "%"}, {"measurement": "Test G rating (% disease control)", "setting": "[2]; 10 ppm", "result": 99, "unit": "%"}, {"measurement": "Test D rating (% disease control)", "setting": "Stagonospora nodorum; 10 ppm", "result": 0, "unit": "%"}, {"measurement": "Test A rating (% disease control)", "setting": "Plasmopara viticola; 10 ppm", "result": 33, "unit": "%"}]}
{"smiles": "OC(Cn1cncn1)(C1=NOC(COc2ccc(C(F)(F)F)cc2)C1)c1ccc(Cl)cc1", "note": "(single isomer, unassigned) [Compound 64]", "values": [{"measurement": "Test C rating (% disease control)", "setting": "Phytophthora infestans; 10 ppm", "result": 0, "unit": "%"}, {"measurement": "Test F rating (% disease control)", "setting": "[1]; 10 ppm", "result": 80, "unit": "%"}, {"measurement": "Test B rating (% disease control)", "setting": "Botrytis cinerea; 10 ppm", "result": 0, "unit": "%"}, {"measurement": "Test E rating (% disease control)", "setting": "Zymoseptoria tritici; 10 ppm", "result": 2, "unit": "%"}, {"measurement": "Test G rating (% disease control)", "setting": "[2]; 10 ppm", "result": 94, "unit": "%"}, {"measurement": "Test D rating (% disease control)", "setting": "Stagonospora nodorum; 10 ppm", "result": 50, "unit": "%"}, {"measurement": "Test A rating (% disease control)", "setting": "Plasmopara viticola; 10 ppm", "result": 12, "unit": "%"}]}
{"smiles": "OC(Cc1ccc(Cl)cc1)(Cn1cncn1)C1=NOC(c2ccc(Cl)cc2)C1", "note": "(single isomer, unassigned) [Compound 94]", "values": [{"measurement": "Test C rating (% disease control)", "setting": "Phytophthora infestans; 10 ppm", "result": 0, "unit": "%"}, {"measurement": "Test F rating (% disease control)", "setting": "[1]; 10 ppm", "result": 100, "unit": "%"}, {"measurement": "Test B rating (% disease control)", "setting": "Botrytis cinerea; 10 ppm", "result": 0, "unit": "%"}, {"measurement": "Test E rating (% disease control)", "setting": "Zymoseptoria tritici; 10 ppm", "result": 0, "unit": "%"}, {"measurement": "Test G rating (% disease control)", "setting": "[2]; 10 ppm", "result": 99, "unit": "%"}, {"measurement": "Test D rating (% disease control)", "setting": "Stagonospora nodorum; 10 ppm", "result": 98, "unit": "%"}, {"measurement": "Test A rating (% disease control)", "setting": "Plasmopara viticola; 10 ppm", "result": 0, "unit": "%"}]}
{"smiles": "OC(Cn1cncn1)(C1=NOC(COc2ccc(Cl)cc2)C1)c1ccc(Cl)cc1", "note": "(single isomer, unassigned) [Compound 62]", "values": [{"measurement": "Test C rating (% disease control)", "setting": "Phytophthora infestans; 10 ppm", "result": 0, "unit": "%"}, {"measurement": "Test F rating (% disease control)", "setting": "[1]; 10 ppm", "result": 92, "unit": "%"}, {"measurement": "Test B rating (% disease control)", "setting": "Botrytis cinerea; 10 ppm", "result": 0, "unit": "%"}, {"measurement": "Test E rating (% disease control)", "setting": "Zymoseptoria tritici; 10 ppm", "result": 0, "unit": "%"}, {"measurement": "Test G rating (% disease control)", "setting": "[2]; 10 ppm", "result": 96, "unit": "%"}, {"measurement": "Test D rating (% disease control)", "setting": "Stagonospora nodorum; 10 ppm", "result": 0, "unit": "%"}, {"measurement": "Test A rating (% disease control)", "setting": "Plasmopara viticola; 10 ppm", "result": 3, "unit": "%"}]}
{"smiles": "OC(Cc1ccc(Cl)cc1)(Cn1cncn1)C1=NOC(c2ccc(Cl)cc2)C1", "note": "(single isomer, unassigned) [Compound 93]", "values": [{"measurement": "Test C rating (% disease control)", "setting": "Phytophthora infestans; 10 ppm", "result": 0, "unit": "%"}, {"measurement": "Test F rating (% disease control)", "setting": "[1]; 10 ppm", "result": 100, "unit": "%"}, {"measurement": "Test B rating (% disease control)", "setting": "Botrytis cinerea; 10 ppm", "result": 0, "unit": "%"}, {"measurement": "Test E rating (% disease control)", "setting": "Zymoseptoria tritici; 10 ppm", "result": 4, "unit": "%"}, {"measurement": "Test G rating (% disease control)", "setting": "[2]; 10 ppm", "result": 100, "unit": "%"}, {"measurement": "Test D rating (% disease control)", "setting": "Stagonospora nodorum; 10 ppm", "result": 99, "unit": "%"}, {"measurement": "Test A rating (% disease control)", "setting": "Plasmopara viticola; 10 ppm", "result": 0, "unit": "%"}]}
{"smiles": "CC(O)(Cn1cncn1)C1=NOC(c2ccc(Cl)cc2)C1", "note": "(single isomer, unassigned) [Compound 36]", "values": [{"measurement": "Test C rating (% disease control)", "setting": "Phytophthora infestans; 50 ppm (asterisk)", "result": 0, "unit": "%"}, {"measurement": "Test F rating (% disease control)", "setting": "[1]; 50 ppm (asterisk)", "result": 17, "unit": "%"}, {"measurement": "Test B rating (% disease control)", "setting": "Botrytis cinerea; 50 ppm (asterisk)", "result": 0, "unit": "%"}, {"measurement": "Test E rating (% disease control)", "setting": "Zymoseptoria tritici; 50 ppm (asterisk)", "result": 0, "unit": "%"}, {"measurement": "Test G rating (% disease control)", "setting": "[2]; 50 ppm (asterisk)", "result": 99, "unit": "%"}, {"measurement": "Test D rating (% disease control)", "setting": "Stagonospora nodorum; 50 ppm (asterisk)", "result": 53, "unit": "%"}, {"measurement": "Test A rating (% disease control)", "setting": "Plasmopara viticola; 50 ppm (asterisk)", "result": 11, "unit": "%"}]}
{"smiles": "C=CCC(O)(Cn1cncn1)C1=NOC(c2ccc(Cl)cc2)C1", "note": "(single isomer, unassigned) [Compound 84]", "values": [{"measurement": "Test C rating (% disease control)", "setting": "Phytophthora infestans; 10 ppm", "result": 0, "unit": "%"}, {"measurement": "Test F rating (% disease control)", "setting": "[1]; 10 ppm", "result": 9, "unit": "%"}, {"measurement": "Test B rating (% disease control)", "setting": "Botrytis cinerea; 10 ppm", "result": 94, "unit": "%"}, {"measurement": "Test E rating (% disease control)", "setting": "Zymoseptoria tritici; 10 ppm", "result": 0, "unit": "%"}, {"measurement": "Test G rating (% disease control)", "setting": "[2]; 10 ppm", "result": 95, "unit": "%"}, {"measurement": "Test D rating (% disease control)", "setting": "Stagonospora nodorum; 10 ppm", "result": 73, "unit": "%"}, {"measurement": "Test A rating (% disease control)", "setting": "Plasmopara viticola; 10 ppm", "result": 11, "unit": "%"}]}
{"smiles": "CCC(O)(Cn1cncn1)C1=NOC(c2ccc(Cl)cc2)C1", "note": "(mixture of isomers) [Compound 34]", "values": [{"measurement": "Test C rating (% disease control)", "setting": "Phytophthora infestans; 50 ppm (asterisk)", "result": 0, "unit": "%"}, {"measurement": "Test F rating (% disease control)", "setting": "[1]; 50 ppm (asterisk)", "result": 53, "unit": "%"}, {"measurement": "Test B rating (% disease control)", "setting": "Botrytis cinerea; 50 ppm (asterisk)", "result": 0, "unit": "%"}, {"measurement": "Test E rating (% disease control)", "setting": "Zymoseptoria tritici; 50 ppm (asterisk)", "result": 0, "unit": "%"}, {"measurement": "Test G rating (% disease control)", "setting": "[2]; 50 ppm (asterisk)", "result": 100, "unit": "%"}, {"measurement": "Test D rating (% disease control)", "setting": "Stagonospora nodorum; 50 ppm (asterisk)", "result": 99, "unit": "%"}, {"measurement": "Test A rating (% disease control)", "setting": "Plasmopara viticola; 50 ppm (asterisk)", "result": 34, "unit": "%"}]}
{"smiles": "C=CCC(O)(Cn1cncn1)C1=NOC(c2ccc(Cl)cc2)C1", "note": "(single isomer, unassigned) [Compound 85]", "values": [{"measurement": "Test C rating (% disease control)", "setting": "Phytophthora infestans; 10 ppm", "result": 0, "unit": "%"}, {"measurement": "Test F rating (% disease control)", "setting": "[1]; 10 ppm", "result": 0, "unit": "%"}, {"measurement": "Test B rating (% disease control)", "setting": "Botrytis cinerea; 10 ppm", "result": 0, "unit": "%"}, {"measurement": "Test E rating (% disease control)", "setting": "Zymoseptoria tritici; 10 ppm", "result": 0, "unit": "%"}, {"measurement": "Test G rating (% disease control)", "setting": "[2]; 10 ppm", "result": 87, "unit": "%"}, {"measurement": "Test D rating (% disease control)", "setting": "Stagonospora nodorum; 10 ppm", "result": 68, "unit": "%"}, {"measurement": "Test A rating (% disease control)", "setting": "Plasmopara viticola; 10 ppm", "result": 19, "unit": "%"}]}
